Results: US20050037446A1, “Agents that recognize src when phosphorylated at serine 17” (priority 2001, published 2005)

Experiments:
[1] = test system: Src++ and SYF cells; test: MTT assay for cell proliferation; type: cell-based, mouse; settings: for Stimulation of cell growth: SYF cells, 48 hours
Protocol: To determine the effect of Src on cell proliferation, the following protocol was used. Src^++ and SYF cells were serum-starved overnight and plated onto 96 well plates. Cells were then treated with PDGF, EGF, Forskolin, H89, and/or PD98059 (PD, 10 μM, Cal Biochem). Cells were analyzed 48 hours later by MTT assay and data quantified (n=4±S.E.). The MTT assay for cell proliferation was conducted as follows (Schmitt and Stork, Mol. Cell. Biol. 21:3671-83, 2001). Briefly, 2.5 hours prior to lysis, 20 μl of sterile […] MTT (Sigma) was added to the cells and allowed to incubate at 37° C. At the appropriate time, cells were lysed and proteins solubilized in 50% volume/volume H2O and N,N,-dimethylformamide containing 20% SDS, 0.5% of 80% acetic acid, and 0.4% 1M HCL Plates were read using a microplate reader and presented as the difference between optical densities at […].
To quantitate cell proliferation, cells were analyzed 48 hours later by MTT assay (see EXAMPLE 3) and data was quantified (n=4±S.E.). […] Expression of Flag-Src in SYF cells restored Forskolin's ability to inhibit PDGF- and EGF-mediated cell growth.

[2] = test system: purified catalytic subunit of PKA; test: PKA kinase assay on membrane-spotted Src peptides, phospho-PKA substrate antibody; type: biochemical; settings: 12.5 nM PKA catalytic subunit, 30° C., 30 minutes
Excerpt: A peptide identical to amino acids 9-25 within the N-terminus of wild-type Src (WT) (KDASQRRRSLEPAENVH; SEQ ID NO: 12), which contains the potential PKA phosphorylation site (underlined), was generated using an Auto-Spot Robot ASP 222 (ABiMED, Langenfeld, Germany) and spotted onto a nitrocellulose membrane. Control peptides with serines 12 and/or 17 replaced by alanine (S12A, SEQ ID NO: 13; S17A, SEQ ID NO: 14; and S12AS17A, SEQ ID NO: 15), serine 17 replaced by aspartate (S17D, SEQ ID NO: 16), and arginines at 14-16 replaced by alanine (R14A, SEQ ID NO: 17; • R15A, SEQ ID NO: 18; R16A, SEQ ID NO: 19), as well as peptides designed to both a scrambled (SEQ ID NO: 20) and an unrelated (FLAG) sequence (SEQ ID NO: 21), were also generated and spotted onto the membrane.
Using a method previously described (Tegge et al., Biochen. 34:10569-77, 1995), the membranes were pre-incubated at room temperature (RT) overnight (ON) in buffer containing 20 mM Hepes, pH 7.4, 100 mM NaCl, 2 mM MgCl2, 1 mM EDTA, 1 mM DTI, and 0.2 mg/ml BSA. Membranes were then blocked at 30° C. for one hour in buffer containing 20 mM Hepes, pH 7.4, 100 mM NaCl, 2 mM MgCl2, 1 mM EDTA, 1 mM DTT, and 1 mg/ml BSA and 30 μM cold ATP. […] The membranes were then blocked, probed, and analyzed using chemiluminescence according the manufacturers guidelines for the phospho-PKA substrate antibody. […]

[3] = test system: Src; test: Src autophosphorylation at tyrosine 416 (Western blot); type: cell-based; settings: SYF cells
Protocol: To examine the mechanism of cAMP regulation of Src, Src kinase activity was assayed in vivo by monitoring autophosphorylation of Src at tyrosine 416 (Tyr416) using previously disclosed methods (Brown and Cooper, Biochim. Biophys. Acta 1287:121-49, 1996; Martin, Nat. Rev. Mol. Cell. Biol. 2:467-75,2001).
[…] Cell lysates were prepared, and Src immunopreciptiated and analyzed by Western blot for either tyrosine phosphorylation at site 416 (p416Src) using phospho-Src (Tyr416) antibodies (Cell Signaling Technology), Flag-Src, or analyzed by Western blot for either PKA phosphorylation or Src (using Src antibodies, Santa Cruz Biotechnology Inc.), using the methods described above. Alternatively, Flag-Src was immunoprecipitated from the cell lysates and analyzed by Western blot for either Cb1 or Flag-Src.
The activation of wild type Src by Forskolin was confirmed by observing autophosphorylation of Src at Tyr416 and using an in vitro kinase assay. To measure autophosphorylation of Src at Tyr416, SYF cells were transfected with either Flag-Src (WT) or Flag-SrcS17A and treated with Forskolin and PDGF or EGF, as described above. Flag-Src was immunoprecipitated from cell lysates and analyzed by Western blot for either phosphorylation of Src on Tyr416 or the presence of Flag-Src. […]

[4] = test system: Rap1; test: Rap1 activation affinity assay (GST-RalGDS pull-down), NIH3T3 cells; type: cell-based; settings: NIH3T3 cells, 10 μM, five minutes
Protocol: NIH3T3 cells (American Type Culture Collection, ATCC, Manassas, Va.) were cultured in Dulbecco-Modified Eagle Medium (DMEM) plus 10% fetal calf serum, penicillin/streptomycin, and L-glutamine at 37° C. in 5% CO2. Cells were maintained in serum-free DMEM for 16 hours at 37° C. in 5% CO2 prior to treatment. NIH3T3 cells were trasfected with Flag-Rap1 (see Vossler et al., Cell, 89:73-82, 1997) or stimulated with Forskolin (10 μM, Cal Biochem, Riverside, Calif.) for five minutes. Forskolin treated cells received either a pretreatment or post-treatment with 10 μM N-[2(Bromocimamylamino) ethyl]-5-isoquinolinesulfonamide (H89) (Cal Biochem, Riverside, Calif.) for 20 minutes.
Cells were co-transfected with Flag-Rap1 at seventy to eighty percent confluency with the cDNA using a Lipofectamine 2000 kit (Gibco BRL, Rockville, Md.) according to the manufacturer's instructions. The control vector, pcDNA3 (Invitrogen Corp.), was included in each set of transfections to assure that each plate received the same amount of DNA. Following transfection, cells were allowed to recover in serum containing media for 24 hours. Cells were then starved overnight in serum-free DMEM before treatment and lysis.
After treatment, cells were lysed in ice-cold lysis buffer (50 mM Tris-HCL (pH 8.0), 10% glycerol, 1% nonidet P40, 200 mM NaCl, 2.5 mM MgCl2, 1 mM phenylmethylsulfonyl fluoride, 1 μM leupeptin, 10 μln soybean trypsin inhibitor, 10 mM NaF, 0.1 μM aprotinin, and 1 mM NaVO4). Nuclei and cytoskeleton were removed from equivalent amounts of lysate by centrifugation at 5,000 rpm for five minutes. The supernatant was centrifuged at 100,000×g for one hour at 4° C. and, the resultant membrane was resuspended in cold lysis buffer. Aliquots of the membrane fraction were analyzed for the presence of C3G by Western blotting. The cytosolic or membrane fractions of treated or untreated cells were mixed with equivalent amounts of lysates from untreated Flag-Rap1 transfected cells. The mixture was incubated at 37° C. for five minutes and equal amounts of lysate were analyzed using the Rap1 activation assay to monitor Flag-Rap 1 activation by Gst-RalGDS.
The Rap1 activation affinity assay was performed as follows. A GST fusion protein of the Rap1-binding domain of RalGDS (GST-RalGDS, Dr. Bos, Utrecht University, The Netherlands) was expressed in E. coli following induction by isopropyl-1thio-β-D-galactopyranoside. Active Rap1 was isolated as previously described (Franke et al., EMBO J. 16:252-9, 1997). Briefly, equivalent amounts of supernatants (500 μg) were incubated with GST-RalGDS-Rap1 binding domain coupled to glutathione beads. Following a one hour incubation at 4° C., beads were pelleted and rinsed threes times with ice-cold lysis buffer. […] Proteins were detected using enhanced chemiluminescence.

[5] = test system: T1, Src 9-25 control peptide S12A
T1 sequence: KDAAQRRRSLEPAENVH

[6] = test system: T2, peptide identical to amino acids 9-25 within the N-terminus of wild-type Src (WT)
T2 sequence: KDASQRRRSLEPAENVH

COc1cccc(-c2cc(=O)c3ccccc3o2)c1N [PD98059]
PDGF stimulation of proliferation in presence of MEK inhibitor ([1]; Src++ and SYF cells, 10 μM): dependent on ERK signaling
Effect on PDGF- and EGF-stimulated SYF cell growth ([1]; transfected SYF cells, pretreatment): blocked

KDASQRRRSLEPAENVH (listed as Homo sapiens) [WT, peptide identical to amino acids 9-25 of wild-type Src]
Recognition by phospho-PKA substrate antibody after PKA kinase assay [2]: recognized

S12A: control Src 9-25 peptide with serine 12 replaced by alanine (KDAAQRRRSLEPAENVH)
Recognition by phospho-PKA substrate antibody after PKA kinase assay [2]: recognized

epidermal growth factor [EGF]
Stimulation of cell growth [1]: stimulated SYF cell growth
Activation of wild type Src and SrcS17A by growth factor [3]: activated both wild type Src and SrcS17A equally

platelet-derived growth factor [PDGF]
Stimulation of cell growth [1]: stimulated SYF cell growth
Activation of wild type Src and SrcS17A by growth factor [3]: activated both wild type Src and SrcS17A equally

prostaglandin E [PGE1]
Activation of endogenous Rap1 [4]: activated Rap1

purified catalytic subunit of PKA
phosphorylation of spotted peptide, detected with the phospho-PKA substrate antibody [5]: Only the peptides containing Ser17 and adjacent arginines (WT and S12A) were recognized by the antibody, consistent with the consensus PKA recognition motif.
phosphorylation of spotted peptide, detected with the phospho-PKA substrate antibody [6]: Only the peptides containing Ser17 and adjacent arginines (WT and S12A) were recognized by the antibody, consistent with the consensus PKA recognition motif.
